Results reported in patent US20130122541A1, “MICROORGANISM PRODUCTION OF HIGH-VALUE CHEMICAL PRODUCTS, AND RELATED COMPOSITIONS, METHODS AND SYSTEMS” (The Regents of the University of Colorado, priority 2010, published 2013).
Values after ≈ are worked out from the molar mass of the structure shown. Where two headings read alike, the source gives them in different places.

What was measured:
[1] = tested on: E. coli; assay: microbe, parasite or virus in culture; type: cell-based; conditions: for MIC: Escherichia coli, BW25113, read-out: MIC Assay Result (g/L 3-HP), aerobic; for % Increase Over Control: aerobic
Description: For MIC evaluations, the final results are expressed in chemical agent concentrations determined by analysis of the stock solution by HPLC (i.e., see Subsection IIIb).
The minimum inhibitory concentration (MIC) was determined aerobically in a 96 well-plate format. […] Media supplements were added according to levels reported in the Supplements Table, where specified. Overnight cultures of strains were grown in triplicate in 5 mL LB (with antibiotic where appropriate). A 1% (v/v) inoculum was introduced into a 5 ml culture of M9 minimal media.

[2] = tested on: E. coli K12; assay: microbe, parasite or virus in culture; conditions: Escherichia coli, K12, 24 h

O=C(O)CCO [3-HP, 3-hydroxypropionic acid]
MIC ([1]; strain BX_00337.0: BW25113 wild type, pSmart-HC-Amp-nrdEF, M9 + Amp 100 μg/mL): 35 g/L | MIC ([1]; strain BX_00352.0: BW25113 wild type, pSmart-LC-Kan-metC C1, M9 + Amp 100 μg/mL): 35 g/L | MIC ([1]; strain BX_00353.0: BW25113 wild type, pSmart-HC-Amp-metC, M9 + Amp 100 μg/mL): 45 g/L | MIC ([1]; strain BX_00354.0: BW25113 wild type, pSmart-HC-Amp-cynTS, M9 + Amp 100 μg/mL): 45 g/L | MIC ([1]; strain BX_00356.0: BW25113 wild type, pSmart-HC-Amp-LysA, M9 + Amp 100 μg/mL): 30 g/L | MIC ([1]; strain BX_00357.0: BW25113 wild type, pKK223-aroH*445, M9 + Amp 100 μg/mL + 1 mM IPTG): 30 g/L | MIC ([1]; strain BX_00359.0: BW25113 wild type, pKK223-aroH*457, M9 + Amp 100 μg/mL + 1 mM IPTG): 35 g/L | MIC ([1]; strain BX_00361.0: BW25113 wild type, pACYC177 (Kan only)-cynTS, M9 + Kan 20 μg/mL): 35 g/L | MIC ([1]; strain BX_00362.0: BW25113 wild type, pACYC177 (Kan only)-aroH, M9 + Kan 20 μg/mL + 1 mM IPTG): 30 g/L | MIC ([1]; strain BX_00363.0: BW25113 wild type, pACYC177 (kan only)-speB, M9 + Kan 20 μg/mL): 35 g/L | MIC ([1]; strain BX_00364.0: BW25113 wild type, pACYC177 (Kan only)-metE (Version1) (SS090608_13), M9 + Kan 20 μg/mL + 1 mM IPTG): 35 g/L | MIC ([1]; strain BX_00365.0: BW25113 wild type, pACYC177 (Kan only)-metC (Version1) (SS090608_17), M9 + Kan 20 μg/mL): 35 g/L | MIC ([1]; strain BX_00368.0: BW25113 wild type, pBT-3-cynTS, M9 + Cm (20 μg/mL)): 30 g/L | MIC ([1]; strain BX_00370.0: BW25113 wild type, pBT-3-speB, M9 + Cm (20 μg/mL)): 30 g/L | % Increase Over Control ([1]; strain BX_00301.0 (pSmart-LC-Kan-folA-C1)): 40% | % Increase Over Control ([1]; strain BX_00302.0 (pSmart-LC-Kan-folA-ORF)): 20% | % Increase Over Control ([1]; strain BX_00304.0 (pSmart-LC-Kan-menA-ORF)): 40% | % Increase Over Control ([1]; strain BX_00305.0 (pSmart-LC-Kan-pheA-C1)): 40% | % Increase Over Control ([1]; strain BX_00307.0 (pSmart-LC-Kan-tyrA-C1)): 40% | % Increase Over Control ([1]; strain BX_00309.0 (pSmart-LC-Kan-cynTS)): 40% | % Increase Over Control ([1]; strain BX_00310.0 (pSmart-LC-Kan-glyA)): 40% | % Increase Over Control ([1]; strain BX_00312.0 (pSmart-LC-Kan-serA)): 40% | % Increase Over Control ([1]; strain BX_00313.0 (pSmart-LC-Kan-folD)): 20% | % Increase Over Control ([1]; strain BX_00314.0 (pSmart-LC-Kan-aroE)): 40% | % Increase Over Control ([1]; strain BX_00315.0 (pSmart-LC-Kan-aroKB C1)): 40% | % Increase Over Control ([1]; strain BX_00317.0 (pSmart-LC-Kan-ilvA operon)): 40% | % Increase Over Control ([1]; strain BX_00318.0 (pSmart-LC-Kan-cysM)): 40% | % Increase Over Control ([1]; strain BX_00319.0 (pK223-aroH)): 50% | % Increase Over Control ([1]; strain BX_00321.0 (pK223-ct-his-thrA)): 75% | % Increase Over Control ([1]; strain BX_00322.0 (pJ61-speFED)): 40% | % Increase Over Control ([1]; strain BX_00323.0 (pJ61-aroG)): 40% | % Increase Over Control ([1]; strain BX_00324.0 (pJ61-thrA)): 40% | % Increase Over Control ([1]; strain BX_00325.0 (pJ61-asd)): 40% | % Increase Over Control ([1]; strain BX_00326.0 (pJ61-ilvA)): 40% | % Increase Over Control ([1]; strain BX_00327.0 (pJ61-cysM)): 40% | % Increase Over Control ([1]; strain BX_00334.0 (pSmart-HC-Amp-cadA)): 60% | % Increase Over Control ([1]; strain BX_00335.0 (pSmart-HC-Amp-prs)): 40% | % Increase Over Control ([1]; strain BX_00336.0 (pSmart-HC-Amp-nrdAB)): 40% | % Increase Over Control ([1]; strain BX_00337.0 (pSmart-HC-Amp-nrdEF)): 40% | % Increase Over Control ([1]; strain BX_00352.0 (pSmart-LC-Kan-metC C1)): 40% | % Increase Over Control ([1]; strain BX_00353.0 (pSmart-HC-Amp-metC)): 80% | % Increase Over Control ([1]; strain BX_00354.0 (pSmart-HC-Amp-cynTS)): 80% | % Increase Over Control ([1]; strain BX_00356.0 (pSmart-HC-Amp-LysA)): 20% | % Increase Over Control ([1]; strain BX_00357.0 (pKK223-aroH*445)): 50% | % Increase Over Control ([1]; strain BX_00358.0 (pKK223-aroH*447)): 75% | % Increase Over Control ([1]; strain BX_00359.0 (pKK223-aroH*457)): 75% | % Increase Over Control ([1]; strain BX_00361.0 (pACYC177 (Kan only)-cynTS)): 40% | % Increase Over Control ([1]; strain BX_00362.0 (pACYC177 (Kan only)-aroH)): 20% | % Increase Over Control ([1]; strain BX_00363.0 (pACYC177 (kan only)-speB)): 40% | % Increase Over Control ([1]; strain BX_00364.0 (pACYC177 (Kan only)-metE)): 40% | % Increase Over Control ([1]; strain BX_00365.0 (pACYC177 (Kan only)-metC)): 40% | % Increase Over Control ([1]; strain BX_00368.0 (pBT-3-cynTS)): 20% | % Increase Over Control ([1]; strain BX_00370.0 (pBT-3-speB)): 20% | MIC ([2]; read-out: Minimum inhibitory concentration (MIC) for E. coli K12 in 100 g/L stock solution 3-HP (control)): 20 mg/mL (≈ 222 mM) | MIC ([2]; read-out: Minimum inhibitory concentration (MIC) of 3-HP for E. coli K12 in M9 minimal media): 30 mg/mL (≈ 333 mM)
